Nine molecules from article PMC11062507 can be followed below.

The test system of data set [1] is CArah1-1 (DNA, aptamer, circular (5' and 3' ends ligated)) ATCCGATCGAGAGGATCCGGAAACATGCGAATTAATGAGGCCCCAAGATAGCTAAGAGAT
In words: MMC-GO-based binding assay, SYBR Gold fluorescence. The following applies: 1x binding buffer (composition not stated); specificity test, concentration not given.

In data set [2] the target is T1, Ara h1 (peanut allergen) (peanut, UniProt P43238 85-626).
T1 sequence: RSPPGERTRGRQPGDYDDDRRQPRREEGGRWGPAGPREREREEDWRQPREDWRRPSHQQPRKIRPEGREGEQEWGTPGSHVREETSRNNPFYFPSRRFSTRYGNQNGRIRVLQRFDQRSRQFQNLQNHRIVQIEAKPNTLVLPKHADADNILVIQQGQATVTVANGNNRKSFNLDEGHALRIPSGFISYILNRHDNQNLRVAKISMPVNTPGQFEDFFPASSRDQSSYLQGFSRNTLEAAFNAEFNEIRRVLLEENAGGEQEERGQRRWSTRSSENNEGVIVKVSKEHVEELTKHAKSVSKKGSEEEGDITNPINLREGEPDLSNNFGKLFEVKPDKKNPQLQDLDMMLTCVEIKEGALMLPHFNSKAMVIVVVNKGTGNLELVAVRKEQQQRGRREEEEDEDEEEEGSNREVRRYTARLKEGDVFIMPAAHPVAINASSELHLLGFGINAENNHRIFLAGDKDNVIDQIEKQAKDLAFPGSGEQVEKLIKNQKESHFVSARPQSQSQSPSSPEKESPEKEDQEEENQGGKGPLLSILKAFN
In words: MMC-GO-based fluorescence binding assay; Kd only in figure; 1x binding buffer (composition not in material); aptamer heated 95 C 5 min, ice 15 min, incubated 60 min with target, then MMC-GO 20 min; MST at 25 C. Particulars: protein: native; tags: RED-NHS dye label in MST; label: SYBR Gold staining; circular ssDNA.

The target of data set [3] is T1, Ara h1 (peanut allergen). The experiment in a line: MMC-GO-based fluorescence binding assay; 1x binding buffer (composition not in material); aptamer heated 95 C 5 min, ice 15 min, incubated 60 min with target, then MMC-GO 20 min; MST at 25 C. The following applies: protein: native; tags: RED-NHS dye label in MST; label: SYBR Gold staining in MMC-GO assay; circular ssDNA.

The target in data set [4] is T1, Ara h1 (peanut allergen). In words: MST; labeled Ara h1 fixed, aptamer titrated, 25 C; 1x binding buffer (composition not in material); aptamer heated 95 C 5 min, ice 15 min, incubated 60 min with target, then MMC-GO 20 min; MST at 25 C. The following applies: protein: native; tags: RED-NHS dye label in MST; label: SYBR Gold staining in MMC-GO assay; circular ssDNA.

With `Cc1cc2nc3c(=O)[nH]c(=O)nc-3n(C[C@H](O)[C@H](O)[C@H](O)CO)c2cc1C`, the binding result in data set [1] is on record as “no”.
The same measure, in the same setting: next, `N[C@@H](Cc1c[nH]c2ccccc12)C(=O)O`: “no”; `N[C@@H](Cc1ccccc1)C(=O)O`: “no”.
Regarding `Nc1ncnc2c1ncn2[C@@H]1O[C@H](COP(=O)(O)OP(=O)(O)OP(=O)(O)O)[C@@H](O)[C@H]1O`, in data set [1], the binding result is reported as “no”.
Same read-out and setting: next, `O=C1O[C@H]([C@@H](O)CO)C(O)=C1O`: “no”; `OC[C@H]1OC(O)[C@H](O)[C@@H](O)[C@@H]1O` (stereo partly shown): “no”.

B1: CArah1-3 (structured_DNA)
DNA: ATCCGATCGATTCTACGGTTTTTCGCTAACGTTCACTGCACTGTATCTGGGCTAAGAGAT
modifications: circular (5' and 3' ends ligated)
As to B1, the binding result with Ara h1 (peanut allergen) [2] is on record as “binds”.

B2: CArah1-4 (structured_DNA)
DNA: ATCCGATCGATCAACAAACTTCGTGGCTCACCCAGACATTCACTCATGCGGCTAAGAGAT
modifications: circular (5' and 3' ends ligated)
In the case of B2, the binding result with Ara h1 (peanut allergen) [2] is “binds”.

B3: CArah1-1 (structured_DNA)
DNA: ATCCGATCGAGAGGATCCGGAAACATGCGAATTAATGAGGCCCCAAGATAGCTAAGAGAT
modifications: circular (5' and 3' ends ligated)
Take B3: the Kd (usually the equilibrium constant for the complex coming apart) came out at 981 nM with Ara h1 (peanut allergen) [3] and 201 nM with Ara h1 (peanut allergen) [4].
